Experimental data as given in US6756401B2, “Compositions and methods for treating osteoporosis and lowering cholesterol” (Pfizer Inc., priority 2000, dated 2004).

Experiments:
OVX rats [1] = experiment: Ovariectomized rat model: serum osteocalcin by radioimmunoassay; assay type: in vivo; conditions: daily for 4 weeks
Source text: (§1) In women, estrogen deficiency during the menopause results in increased bone turnover leading to bone loss. Ovariectomy in rats produces estrogen deficiency and increased bone turnover leading to trabecular bone loss similar to that observed in post-menopausal women (Kalu, D. N., Bone and Mineral 1991 ;15:175; Frost, H. M., Jee W. S. S., Bone and Mineral 1992;18:227; Wronski, T. J., Yen, C-F, Cells Materials 1991;(suppl. 1):69). The OVX rat is thus an appropriate model to evaluate compounds for the prevention and treatment of post-menopausal osteoporosis. The ability of PPTN to inhibit estrogen deficiency bone loss was assessed in 5-month-old OVX rats, since ovariectomy causes significant bone loss in the lumbar vertebrae, proximal tibia, and distal femoral metaphyses (Ke, H. Z., et al., Endocrin 1995;136:2435; Chen, H. K., et al., J Bone Miner Res 1995;10:1256).
Five-month-old OVX female rats were treated with PPTN at oral doses of 0.733, 7.33, 73.3, and 733 μg/kg/day, or 17α-ethynyl estradiol (EE) at 30 μg/kg/day (10 rats per subgroup) daily for 4 weeks. […] The effects of PPTN on the following end points were determined: (a) serum osteocalcin, a biochemical marker of bone turnover, (b) bone mineral density of lumbar vertebrae and distal femoral metaphyses, (c) bone histomorphometry of fifth lumbar vertebral body and proximal tibial metaphyses. […]

OVX rats [2] = experiment: Ovariectomized rat model: lumbar vertebrae BMD by dual-energy X-ray absorptiometry; assay type: in vivo; conditions: 4 weeks
Source text: as §1
(§2) Five-month-old OVX female rats were treated with PPTN at oral doses of 0.733, 7.33, 73.3, and 733 μg/kg/day, or 17α-ethynyl estradiol (EE) at 30 μg/kg/day (10 rats per subgroup) daily for 4 weeks. The oral treatment began 1 day after surgery. Groups of vehicle-treated sham rats (n=10) and vehicle-treated OVX rats (n=10) served as controls. Calcein at 10 mg/kg was injected s.c. to all rats 12 and 2 days before necropsy as a fluorochrome bone marker to measure bone dynamic histomorphometric parameters. The effects of PPTN on the following end points were determined: (a) serum osteocalcin, a biochemical marker of bone turnover, (b) bone mineral density of lumbar vertebrae and distal femoral metaphyses, (c) bone histomorphometry of fifth lumbar vertebral body and proximal tibial metaphyses.
The first to the sixth lumbar vertebrae from each rat were removed during necropsy. These were then scanned ex vivo using dual-energy X-ray absorptiometry. The scan images were analyzed, and bone area, bone mineral content (BMC), and bone mineral density (BMD) of whole lumbar vertebrae (WLV), and LV1 through LV6 were determined. […] The changes in BMC were similar to those observed in BMD. […]

OVX rats [3] = experiment: Ovariectomized rat model: bone histomorphometry of fifth lumbar vertebral body; assay type: in vivo; conditions: 4 weeks
Source text: as §1, §2
In order to understand the cellular mechanism of bone-protective effects of PPTN at the tissue level, bone histomorphometric methods were used to determine the effects of PPTN on cancellous bone of the fifth lumbar vertebral body in OVX rats. Ovariectomy caused significant decreases in trabecular bone volume (trabecular bone area divided by marrow space area, expressed as percent) and trabecular number, and a significant increase in trabecular separation of the fifth lumbar vertebral body.

OVX rats [4] = experiment: Ovariectomized rat model: femur BMD by dual-energy X-ray absorptiometry; assay type: in vivo; conditions: 4 weeks
Source text: as §1, §2
Using dual-energy X-ray absorptiometry, the right femur of each rat was scanned ex vivo. Bone mineral density (BMD) of the distal femoral metaphyses (second 0.5 cm from the distal end of femur) and the proximal femur (the first 0.5 cm from the proximal end of femur, which contains the femoral head, neck, and greater trochanter) was determined.

OVX rats [5] = experiment: Ovariectomized rat model: histomorphometry of proximal tibial metaphyses; assay type: in vivo; conditions: 4 weeks
Source text: as §1, §2
In order to determine the effect of PPTN on long bone metaphyses, histomorphometric analyses were performed on the proximal tibiae.

MDA-MB-231 cells = experiment: Inhibition of in vitro human breast tumor cell growth, ER-negative cells; assay type: cell-based; conditions: MDA-MB-231 (ER-negative), 6 days incubation, direct cell counts
Procedure: The in vitro antiproliferative effects of (−)-cis-6-phenyl-5-[4-(2-pyrrolidin-1-yl-ethoxy)-phenyl]-5,6,7,8-tetrahydro-naphthalene-2-ol (PPTN) were tested using two types of human breast cancer cell lines: first, MCF-7 cells, which contain ER as well as progesterone receptors (PgR), and second, MDA-MB-231 cells, which lack ER and PgR, and enable the determination of an effect that is independent of the ER mechanism. The effect of PPTN on the growth of these different cell lines was determined by incubation of the cells with various compound concentrations for 6 days.
The antiproliferative effects were then determined by direct cell counts. PPTN inhibited the growth of the ER-positive cell line MCF-7.

[6] = PPTN at doses ≧7.33 μg/kg/day oral
[7] = PPTN at 7.33, 73.3, or 733 μg/kg/day oral

## C#C[C@]1(O)CC[C@H]2[C@@H]3CCc4cc(O)ccc4[C@H]3CC[C@@]21C [EE, 17α-ethynyl estradiol, reference compound]
OVX rats [1]; EE 30 μg/kg/day oral
  increase in serum osteocalcin concentration after ovariectomy: completely prevented
OVX rats [2]; EE 30 μg/kg/day oral
  decrease in lumbar vertebral BMD after ovariectomy: completely prevented the decrease
OVX rats [3]; EE 30 μg/kg/day oral
  bone turnover rate, lumbar vertebral body: did not differ from sham controls
  ovariectomy-induced changes in trabecular bone volume, trabecular number and trabecular separation of fifth lumbar vertebral body: completely prevented
  ovariectomy-induced increase in bone formation rate (BFR): inhibited this increase
  percent eroded surface (index of osteoclastic bone resorption) compared with sham controls: significantly decreased
  trabecular number of fifth lumbar vertebral body compared with sham controls: significantly increased
OVX rats [4]; EE 30 μg/kg/day oral
  decrease in BMD of distal femoral metaphyses after ovariectomy: prevented the decrease
  proximal femoral BMD: had no effect
OVX rats [5]; EE 30 μg/kg/day oral
  bone turnover rate in proximal tibial trabecular bone: did not differ from sham controls
  osteoclast number per millimeter of bone surface compared with both sham and OVX controls: significantly decreased
  percent osteoclast surface compared with both sham and OVX controls: significantly decreased

## Oc1ccc2c(c1)CC[C@H](c1ccccc1)[C@@H]2c1ccc(OCCN2CCCC2)cc1 [PPTN, (−)-cis-6-phenyl-5-[4-(2-pyrrolidin-1-yl-ethoxy)-phenyl]-5,6,7,8-tetrahydro-naphthalene-2-ol]
MDA-MB-231 cells
  inhibition of cell proliferation: did not inhibit cell proliferation
OVX rats [1]; [6]
  increase in serum osteocalcin concentration after ovariectomy: completely prevented
OVX rats [2]; PPTN 73.3 μg/kg/day oral
  lumbar vertebral BMD compared with both sham and OVX controls: increased significantly
OVX rats [2]; PPTN at all dose levels (0.733 to 733 μg/kg/day oral)
  decrease in lumbar vertebral BMD after ovariectomy: completely prevented the decrease
OVX rats [3]; OVX rats, oral, lumbar vertebrae
  ED50 in preserving lumbar vertebral cancellous bone mass and structure: less than 0.733 μg/kg/day
OVX rats [3]; PPTN at 0.733 μg/kg/day oral
  bone loss in lumbar vertebrae: completely prevented bone loss
OVX rats [3]; PPTN at 73.3 or 733 μg/kg/day oral
  trabecular number of fifth lumbar vertebral body compared with sham controls: significantly increased
OVX rats [3]; PPTN at all dose levels, oral
  bone turnover rate, lumbar vertebral body: did not differ from sham controls
  ovariectomy-induced increase in bone formation rate (BFR): inhibited this increase
  percent eroded surface (index of osteoclastic bone resorption) compared with sham controls: significantly decreased
OVX rats [3]; all doses of PPTN (0.733 to 733 μg/kg/day oral)
  ovariectomy-induced changes in trabecular bone volume, trabecular number and trabecular separation of fifth lumbar vertebral body: completely prevented
OVX rats [4]; PPTN at 0.733 or 7.33 μg/kg/day oral
  BMD of distal femoral metaphyses and proximal femur: did not differ from OVX controls
OVX rats [4]; PPTN at both 73.3 and 733 μg/kg/day oral
  decreases in BMD of distal femoral metaphyses and proximal femur: completely prevented the decreases
OVX rats [5]; PPTN at 0.733 μg/kg/day oral
  percent osteoclast surface compared with OVX controls: decreased significantly
  prevention of bone loss in proximal tibiae: failed to do so
  proximal tibial trabecular bone volume: no significant effect
OVX rats [5]; [7]
  osteoclast number per millimeter of bone surface compared with both sham and OVX controls: significantly decreased
  percent osteoclast surface compared with both sham and OVX controls: significantly decreased
OVX rats [5]; PPTN at doses of 7.33 to 733 μg/kg/day oral
  bone turnover rate in proximal tibial trabecular bone: did not differ from sham controls
OVX rats [5]; [6]
  proximal tibial trabecular bone volume compared with OVX controls: significantly greater
